Data set [1] can be described thus: MTS antiproliferative assay (non-cancer cells). The settings on record: human. Background: Formazan colour is commonly taken as a measure of viable cells.
For data set [2], the target named is T1, bovine serum albumin (BSA) (Bos taurus, UniProt P02769).
T1 construct: purchased Sigma-Aldrich Chemicals
Briefly: BSA fluorescence quenching (Stern-Volmer). The settings on record: 0.01 M PBS buffer pH 7.4, 25 °C, λex = 280 nm. Type of data set: binding. The procedure:
Fluorescence measurements were carried out on a Varian Cary Eclipse spectrofluorometer. The quenching studies of BSA with the Ga(III) complexes were investigated to determine whether they were able to quench fluorescence of BSA. All measurements were performed at 25 °C in 0.01 M PBS buffer (pH 7.4). The fluorescence spectra were measured at an excitation wavelength of 280 nm, with a slit width of 10 nm for the excitation and emission beams, in the range of 300–450 nm and analysed according to the classical Stern–Volmer Equation: F0/F=1+KSVQ where F0 and F are the fluorescence intensities in the absence and the presence of the quencher, respectively, KSV is the Stern–Volmer constant, and [Q] is the concentration of quencher.

Data set [3] concerns Escherichia coli (E. coli) CCM 3988. Put plainly: Antimicrobial activity, macrodilution method (growth by A590). In kind it is cell-based. Particulars: Escherichia coli.
For data set [4], the system named is Pseudomonas aeruginosa (P. aeruginosa) CCM 1959. Described as above. The settings on record: Pseudomonas aeruginosa. In kind it is cell-based.
The test system of data set [5] is Staphylococcus aureus (S. aureus) CCM 3953. The data set is described as above. Type of data set: cell-based. Particulars: Staphylococcus aureus.
Data set [6] concerns Jurkat (human leukaemic T cell lymphoma). Briefly: MTS antiproliferative assay. Particulars: Homo sapiens, Jurkat, 72 h, read-out: Cytotoxic activity IC50 Jurkat.
Data set [7] deals with MDA-MB-231 (human mammary gland adenocarcinoma). Briefly: MTS antiproliferative assay. Particulars: Homo sapiens, MDA-MB-231, 72 h, read-out: Cytotoxic activity IC50 MDA-MB-231.
Data set [8] concerns PaTu 8902 (human pancreatic adenocarcinoma). Put plainly: MTS antiproliferative assay. Particulars: Homo sapiens, PaTu 8902, 72 h, read-out: Cytotoxic activity IC50 PaTu 8902.
The subject of data set [9] is HeLa (human cervical adenocarcinoma). Put plainly: MTS antiproliferative assay. The settings on record: Homo sapiens, HeLa, 72 h, read-out: Cytotoxic activity IC50 HeLa.
The subject of data set [10] is A2058 (human metastatic melanoma). Put plainly: MTS antiproliferative assay. Particulars: Homo sapiens, A2058, 72 h, read-out: Cytotoxic activity IC50 A2058.
For data set [11], the system named is HCT116 (human colorectal carcinoma). Put plainly: MTS antiproliferative assay. The settings on record: Homo sapiens, HCT-116, 72 h, read-out: Cytotoxic activity IC50 HCT116.
Data set [12] concerns Microsporum gypseum (M. gypseum) CCM F-8342. Briefly: Growth of filamentous fungi, macrodilution method on solidified PDA (colony diameter). Particulars: Nannizzia gypsea, read-out: IC50 M. gypseum. In kind it is cell-based.
Data set [13] deals with Alternaria alternata (A. alternata) CCM F-128. The data set is described as above. In kind it is cell-based. Particulars: Alternaria alternata, read-out: IC50 A. alternata.
Data set [14] deals with Rhizopus oryzae (R. oryzae) CCM F-8284. The description is as above. Particulars: Rhizopus arrhizus, read-out: IC50 R. oryzae. In kind it is cell-based.
The test system of data set [15] is Candida parapsilosis (C. parapsilosis) ATCC 22019. Briefly: Antimicrobial activity, macrodilution method (yeast, growth by A590). Type of data set: cell-based. The settings on record: Lodderomyces parapsilosis.
[16] abbreviates: Filamentous fungi, solidified potato-dextrose growth medium.

Where two headings read alike, the source gives them in different places.

T1 sequence (P02769 25-607): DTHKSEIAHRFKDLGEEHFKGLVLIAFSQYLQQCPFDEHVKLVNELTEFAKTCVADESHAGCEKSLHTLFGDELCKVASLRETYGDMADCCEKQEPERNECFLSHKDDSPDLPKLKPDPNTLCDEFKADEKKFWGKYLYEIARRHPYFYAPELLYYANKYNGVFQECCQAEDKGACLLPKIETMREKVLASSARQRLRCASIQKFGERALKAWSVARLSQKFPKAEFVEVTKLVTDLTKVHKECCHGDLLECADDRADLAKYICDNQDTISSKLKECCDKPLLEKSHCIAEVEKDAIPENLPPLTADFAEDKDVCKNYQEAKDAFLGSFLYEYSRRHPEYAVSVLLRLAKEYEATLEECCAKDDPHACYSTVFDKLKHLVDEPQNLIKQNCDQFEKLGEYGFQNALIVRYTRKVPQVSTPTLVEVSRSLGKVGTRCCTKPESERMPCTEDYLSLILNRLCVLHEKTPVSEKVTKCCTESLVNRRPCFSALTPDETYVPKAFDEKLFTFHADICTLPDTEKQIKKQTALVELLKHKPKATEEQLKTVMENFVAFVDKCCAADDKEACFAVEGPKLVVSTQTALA

For the molecule `O=C(O)c1cccc(C(=O)O)n1` [H2Dpic, dipicolinic acid], the concentration for half-maximal inhibition (IC50) at 72 h in [1] is > 200 µM. Besides, the “Stern–Volmer binding constant Ksv BSA” value in data set [2] was determined as 28700 M⁻¹. Moreover, the 50% inhibitory concentration (IC50) in [3] (CCM3988, read-out: IC50 E. coli) is > 1000 µM; in [4] (CCM1959, read-out: IC50 P. aeruginosa), > 1000 µM; in data set [5] (CCM3953, read-out: IC50 S. aureus), > 1000 µM; in [6], > 200 µM; in [7], > 200 µM; in [8], > 200 µM. Moreover, the IC50 in data set [9] is > 200 µM; in [10], > 200 µM; in data set [11], > 200 µM; in [12] it was > 1000 µM; in [13] it was > 1000 µM; in data set [14], 500 µM. Moreover, the 50% inhibitory concentration (IC50) in data set [15] (ATCC22019, read-out: IC50 C. parapsilosis) was > 1000 µM.

Consider `O=C(O)c1ccccn1` [HPic, picolinic acid], for which the concentration for half-maximal inhibition (IC50) at 72 h in [1] (human dermal fibroblasts (HDF)) was > 200 µM. Moreover, the “Stern–Volmer binding constant Ksv BSA” value in [2] worked out at 6800 M⁻¹. Moreover, the IC50 in data set [3] (CCM3988, Bacteria, MHB, 37 °C, DMSO max 1.0 vol. %, read-out: IC50 E. coli) was > 500 µM; in [4] (CCM1959, Bacteria, MHB, 37 °C, DMSO max 1.0 vol. %, read-out: IC50 P. aeruginosa), > 500 µM; in [5] (CCM3953, Bacteria, MHB, 37 °C, DMSO max 1.0 vol. %, read-out: IC50 S. aureus), > 500 µM; in [6] it was > 200 µM; in [7], > 200 µM; in data set [8] it was > 200 µM. For the same molecule, the IC50 in data set [9] is > 200 µM; in data set [10], > 200 µM; in [11], > 200 µM; in [12] (setting [16]), > 500 µM; in data set [13] (setting [16]) it was > 500 µM; in data set [14] (solidified potato-dextrose growth medium) it was > 500 µM. Moreover, the half-inhibitory concentration (IC50) in [15] (ATCC22019, Yeast, Sabouraud's growth medium, 37 °C, read-out: IC50 C. parapsilosis) was > 500 µM.

One may read the IC50 as the midpoint of a concentration-inhibition curve.

Values taken from article PMC10415494, “Ga(III) pyridinecarboxylate complexes: potential analogues of the second generation of therapeutic Ga(III) complexes?” (Journal of Biological Inorganic Chemistry, 2023).
